These results are taken from patent US12168802B2, “Methods of diagnosing and treating CD55 deficiency, hyperactivation of complement, angiopathic thrombosis and protein losing enteropathy (CHAPLE), a newly identified orphan disease” (The United States of America, as represented by the …, priority 2016, dated 2024).

One data set has as its system human CD4+ T cells. As to the kind of experiment: Surface expression of C3aR and gut homing markers on CD4+ T cells grown with ATRA. It counts as cell-based. Particulars: w/wo 10 nM ATRA. As for the experimental part: FIGS. 9A, 9B, 9C, 9D, 9E, 9F, 9G, 9H, 9I, 9J, 9K, 9L, 9M, 9N, 90, and 9P. Changes in inflammatory cytokine production by CD55 deficient cells promote pro-thrombotic changes in endothelial cells. Cytokine secretion in control and patient T cells following restimulation with anti-CD3 for 48 hours. Cells were either left untreated or treated with a combination of C3aR and C5aR1 inhibitors, both at 10 μM final concentration. Each patient point represents the average of at least three independent experiments. Results are for TNFα, IL10, or IFNγ (A, B, and C respectively). […] Quantification of the change in TM and TF expression on HUVECs in response to 24 hour culture with increasing doses of TNFα (H). […] Quantification of CD46, CD59, and CD55 expression on HUVECs in response to 24 hour culture with increasing doses of TNFα (J, K, and L, respectively). Quantification of the change in TM and TF expression on HUVECs in response to 48 hour culture with increasing doses of ATRA (M). Quantification of CD46, CD59, and CD55 expression on HUVECs in response to 48 hour culture with increasing doses of ATRA (N, O, and P, respectively). […]
Flow Cytometry. […] Cells were then washed 3× and resuspended in FACS buffer with 1% PFA and analyzed by flow cytometry. Flow files were analyzed on FlowJo version 9.9 or above (FlowJo, LLC, Ashland, OR, USA).

Another data set relates to HUVECs. As to the kind of experiment: Surface marker expression on HUVECs after TNFα or ATRA treatment (flow cytometry). It counts as cell-based, human. As to the method:
FIGS. 9A, 9B, 9C, 9D, 9E, 9F, 9G, 9H, 9I, 9J, 9K, 9L, 9M, 9N, 90, and 9P. Changes in inflammatory cytokine production by CD55 deficient cells promote pro-thrombotic changes in endothelial cells. Cytokine secretion in control and patient T cells following restimulation with anti-CD3 for 48 hours. Cells were either left untreated or treated with a combination of C3aR and C5aR1 inhibitors, both at 10 μM final concentration. Each patient point represents the average of at least three independent experiments. Results are for TNFα, IL10, or IFNγ (A, B, and C respectively). Anaphylatoxin receptor surface expression on proliferating CD4^+ T cells grown in complete RPMI supplemented with 100 u/mL IL2, isotype: filled grey line, sample: solid black line (D). C3aR expression on proliferating CD4^+ T cells grown in serum free X-vivo15 media supplemented with 100 u/mL IL-2 w/wo 10 nM ATRA, grey and black line respectively, isotype: filled grey line (E). IL-10 production in control and patient T cells stimulated with anti-CD3 and stimulatory antibodies directed against the indicated costimulatory molecules (F). Flow plots of thrombomodulin (TM) and Tissue Factor (TF) expression on HUVECs cultured for 24 hours w/wo 10 ng/mL TNFα (G). Quantification of the change in TM and TF expression on HUVECs in response to 24 hour culture with increasing doses of TNFα (H). Flow plots of CD46 and CD59 expression on HUVECs cultured for 24 hours w/wo 10 ng/mL TNFα (I). Quantification of CD46, CD59, and CD55 expression on HUVECs in response to 24 hour culture with increasing doses of TNFα (J, K, and L, respectively). Quantification of the change in TM and TF expression on HUVECs in response to 48 hour culture with increasing doses of ATRA (M). Quantification of CD46, CD59, and CD55 expression on HUVECs in response to 48 hour culture with increasing doses of ATRA (N, O, and P, respectively). (not significant (n.s.), * p<0.05, **p<0.01, ***p<0.001).
Flow Cytometry. Adherent cells were treated with 0.05% trypsin EDTA to lift them from the surface followed by addition of 5% FBS to inactivate the trypsin. Suspension cells were collected from culture following mixture of the culture by repeat pipetting. Cells were washed and resuspended in FACS buffer (1% FBS, 0.05% sodium azide, and 5 mM EDTA in PBS) at 2×10^6 cells/mL. Staining or isotype antibodies were added at 1:200 final dilutions and incubated with cells at 4° C. for 30 minutes to 1 hour. Cells were then washed 3× and resuspended in FACS buffer with 1% PFA and analyzed by flow cytometry. Flow files were analyzed on FlowJo version 9.9 or above (FlowJo, LLC, Ashland, OR, USA).
HUVEC Experiments. Huvecs grown to 80% confluency, and before passage 8, were trypsonized and replated in 24 well tissue culture plates at 200,000 cells/well in Huvec media. Twenty-four hours later the indicated concentrations of TNFα, IL10, or all trans retinoic acid (ATRA) were added. Twenty-four hours later in the cast of TNFα or IL10 treatment or 48 hours later in the case of ATRA, cells were trypsonized and stained for the indicated surface markers following the described flow cytometry staining protocol. Cells were then immediately analyzed.
Background: Flow cytometry measures light scatter and fluorescence of single cells or particles in a stream.

The next data set has as its system patient T cells. As to the kind of experiment: Anaphylatoxin ratios (C3a/C4a, C5a/C4a) in T cell culture supernatants. The class given is cell-based, human. The following applies: 24 hours incubation with 5% nHS, 100 μM Compstatin. As to the method:
(§1) FIGS. 11A, 11B, and 11C. (A) C3d deposition on patient and control T cells were incubated in the presence or absence of 5% nHS with or without the addition of 100 μM Compstatin to block complement activation. (B) Ratio of C3a to C4a in culture supernatants after 24 hours of incubation with 5% nHS w/wo 100 μM compstatin. (C) Ratio of C5a to C4a in culture supernatants after 24 hours of incubation with 5% nHS or without 100 μM compstatin. ***=p<0.001.
Compstatin Inhibits C3d Deposition on Human Cells. FIG. 11A illustrates that Compstatin inhibits C3d deposition on human T cells. […] In FIG. 11C, the ratio of C5a to C4a in culture supernatants of patient T cells after 24 hours of incubation with 5% nHS and 100 μM Compstatin is decreased, as compared to patient T cells not treated with Compstatin. ***=p<0.001.

In the next data set the test system is human T cells. As to the kind of experiment: C3d complement deposition on T cells incubated with normal human serum (flow cytometry). It counts as cell-based. Particulars: 5% nHS, 100 μM Compstatin. As for the experimental part: as §1
Complement Deposition. T cells (Patient CD4^+ T cell blasts or Jurkat T cells) were collected and washed 3× in basal RPMI. Cells were then resuspended in basal media and rested for 2-3 hours at 37° C. to allow any deposited complement components to be cleared from the cell surface. Rested cells were then collected and resupended in basal RPMI or basal RPMI that had been adjusted to pH 6.5 (acidified media) to a final concentration of 1×10^6 cells/mL. Non-heat shocked pooled normal human serum was then added to cell suspension for the indicated amount of time. Human serum that had been heat shocked at 56° C. for 30 minutes was used as a negative control for complement activation. […] Cells were washed 3× and resuspended in FACS buffer (PBS, 1% FBS) and analyzed for C3d deposition by flow cytometry. […] Cells were then treated with trypsin/EDTA to release cells into suspension, washed, and then analyzed for C3d deposition as above. […]

Setting [1] is: 48 hour culture with increasing doses of ATRA.

In the case of `CC1=C(/C=C/C(C)=C/C=C/C(C)=C/C(=O)O)C(C)(C)CCC1` [ATRA, all trans retinoic acid], the “surface expression of C3aR on T cells” value in the data set with human CD4+ T cells (serum free X-vivo15 media) was “depended on the presence”. Further, the “chemokine receptor CCR9 and integrin α4β7 (gut homing) on T cells” value in the data set on human CD4+ T cells (serum free conditions) is reported as “expressed”. Besides, in the data set on HUVECs (setting [1]), the CD46 expression result is “no change”, the CD55 expression entry is reported as “increase”, the CD59 expression result was “no change” and the thrombomodulin expression result was “dose-dependent decrease”.
Consider `CC[C@H](C)[C@H](N)C(=O)N[C@H]1CSSC[C@@H](C(=O)N[C@H](C(N)=O)[C@@H](C)O)NC(=O)[C@H](CCCN=C(N)N)NC(=O)[C@H](Cc2cnc[nH]2)NC(=O)[C@H](Cc2cnc[nH]2)NC(=O)CNC(=O)[C@H](Cc2c[nH]c3ccccc23)NC(=O)[C@H](CC(=O)O)NC(=O)[C@H](CCC(N)=O)NC(=O)[C@H](C(C)C)NC(=O)[C@H](C(C)C)NC1=O` [Compstatin], for which, in the data set with patient T cells, the “ratio of C3a to C4a in culture supernatants” value is “considerably decreased” and the “ratio of C5a to C4a in culture supernatants” value is “decreased”. Moreover, the “C3d deposition on patient T cells” value in the data set with human T cells was “substantially inhibited”.
For the compound TNFα, in the data set with HUVECs (24 hour culture with TNFα), the “CD46 expression on endothelial cells” value is on record as “decreased”; the “CD55 expression on endothelial cells” value is reported as “modestly increasing”; the “CD59 expression on endothelial cells” value is listed as “decreased”; the “thrombomodulin (TM) and tissue factor (TF) expression on endothelial cells” value is “induces procoagulatory”.
